The target of series [1] is T1, ASGPR on the surface of immortalized human hepatocyte HepG2 cells (Homo sapiens, UniProt P07306+P07307).
T1 sequence (P07306 1-291): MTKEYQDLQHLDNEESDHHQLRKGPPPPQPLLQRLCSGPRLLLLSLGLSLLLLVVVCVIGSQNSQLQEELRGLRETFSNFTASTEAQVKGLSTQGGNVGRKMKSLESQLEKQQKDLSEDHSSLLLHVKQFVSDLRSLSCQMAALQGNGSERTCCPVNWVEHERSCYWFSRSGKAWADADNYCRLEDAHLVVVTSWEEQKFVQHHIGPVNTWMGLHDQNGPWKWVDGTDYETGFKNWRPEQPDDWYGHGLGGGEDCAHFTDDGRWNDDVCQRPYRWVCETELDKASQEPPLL
T1 sequence (P07307 1-311): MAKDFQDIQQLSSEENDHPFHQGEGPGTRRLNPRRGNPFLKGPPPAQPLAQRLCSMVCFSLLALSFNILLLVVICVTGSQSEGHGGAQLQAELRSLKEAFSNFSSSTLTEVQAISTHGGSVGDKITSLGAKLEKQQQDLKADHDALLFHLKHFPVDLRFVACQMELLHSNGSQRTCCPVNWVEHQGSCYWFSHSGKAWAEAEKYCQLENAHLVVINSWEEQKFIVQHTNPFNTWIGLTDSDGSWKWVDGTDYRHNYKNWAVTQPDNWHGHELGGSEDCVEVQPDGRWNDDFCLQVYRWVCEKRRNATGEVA
Description: DNP-GN3-mediated ternary complex formation: association of fluorescently labeled α-DNP antibody with HepG2 cells in suspension. Format: cell-based. From the text: (§1) It was investigated whether DNP-GN3 could mediate the formation of a ternary complex between a fluorescently labeled α-DNP antibody and ASGPR on the surface of immortalized human hepatocyte HepG2 cells in suspension. […] The observed bell-shaped response to DNP-GN3 concentration is consistent with the prozone effect commonly observed in systems wherein a ternary complex is formed.

In series [2] the test system is HepG2 cells. As to the kind of experiment: DNP-AF3-mediated endocytosis of fluorescently labeled α-DNP antibody by HepG2 cells (flow cytometry). Type of series: cell-based, human. Particulars: 40 nM DNP-AF3, 100 nM antibody; ASF 2.07 μM; AF and GalNAc 1.25 mM; FIG. 105. How it is done: The intracellular fluorescence of cells that were incubated at 37° C. with both fluorescently labeled α-DNP antibody and DNP-AF3 for a given amount of time was examined. Cells were then washed, removed from the plate with trypsin, and subjected to flow cytometry. Trypsin treatment is expected to cleave ASGPR and surface-bound α-DNP antibody from cells, and therefore the cellular fluorescence observed in these assays is expected to arise only from internalized antibodies.
It was then determined if reagents which inhibit ternary complex formation inhibit endocytosis mediated by DNP-AF3. In order to account for non-specific antibody association with cells, the mean fluorescence intensity of an aliquot of cells which had been treated with α-DNP antibody but not DNP-AF3 was subtracted from each reading. […] In the presence of 2.38 μM (0.1 mg/mL) ASOR, the cell population fluorescence was decreased to 4.66e5 (FIG. 105); at this ASOR concentration, ternary complex formation is decreased by approximately 70%. Because ternary complex is not inhibited completely at this concentration of ASOR, it is expected that productive endocytic events are still taking place.

The subject of series [3] is HepG2 cells. Description: DNP-GN3-mediated endocytosis of fluorescently labeled α-DNP antibody by adherent HepG2 cells. Format: cell-based, human. Conditions: competitive binders at high concentrations; FIG. 88.
Series [4] relates to α-DNP antibody. As to the kind of experiment: Depletion of α-DNP antibody from serum in mice (ELISA). Type of series: in vivo. Particulars: negative control compound; FIG. 95. Here is the method: FIG. 94 illustrates that serum levels of α-DNP antibody decrease more rapidly following repeated treatment with DNP-GN3. Serum antibody levels were measured using an ELISA assay. Each experimental group contained three mice. Statistical differences in experiments involving in vivo depletion of α-DNP antibody were assessed by repeated measures two-way ANOVA with Tukey's tests for post-hoc comparison of simple effects between each of the treatment groups and PBS.
Single doses of DNP-GN3 were also found to be efficacious at mediating α-DNP antibody depletion, albeit less effectively than daily dosing (FIG. 96). […] Therefore, it was concluded that DNP-GN3 is able to mediate the depletion of a monoclonal antibody from serum, and functions across a wide range of target protein concentrations and dosing regimens.
DNP-GN3 was also found to be efficacious in depleting polyclonal α-DNP antibody from serum collected from mice immunized with DNP-keyhole limpet haemocyanin (KLH) (FIG. 97). […] Thus, the small molecule DNP-GN3 is not restricted in function to only monoclonal mouse antibodies, but is also effective at removing polyclonal α-DNP antibodies from circulation in mice.
For orientation: ELISA stands for enzyme-linked immunosorbent assay.

Series [5] is described as follows: Tolerability of DNP-GN3 and DNP-OH3 in mice (body weight, AST, ALT). Format: in vivo. Particulars: all tested concentrations; FIGS. 93A-93C. How it is done: FIGS. 93A-93C illustrate that DNP-GN3 and DNP-OH3 are not toxic to mice at all tested concentrations. FIG. 93A: mouse body weight following treatment with DNP-GN3 or DNP-OH3. Statistical differences were analyzed by T test. FIG. 93B: levels of aspartate transaminase (AST) in treated mice. Dashed lines represent the normal range. FIG. 93C: levels of alanine transaminase (ALT) in treated mice. Dashed lines represent the normal range.

The test system of series [6] is ASGPR on the surface of HepG2 cells. As to the kind of experiment: DNP-AF3-mediated ternary complex formation: α-DNP antibody association with HepG2 cells (flow cytometry). Particulars: 40 nM DNP-AF3, 100 nM α-DNP antibody; FIG. 99; read-out: IC50, inhibition of DNP-AF3-mediated ternary complex formation. Type of series: cell-based, human. How it is done:
DNP-AF3 utilizes trivalent display of a higher affinity ASGPR ligand to engage the receptor. First, the effect of DNP-AF3 concentration on α-DNP antibody association with cells was determined (FIG. 98). In these experiments, a constant amount of α-DNP antibody and cells was incubated with various concentrations of DNP-AF3. The mean fluorescence intensity of the cell population was measured using flow cytometry. In order to account for background cellular fluorescence and non-DNP-AF3 mediated antibody association with cells, the mean fluorescence intensity of a sample of cells which had been treated with α-DNP antibody but not DNP-AF3 was subtracted from each data point.
Next, whether increasing concentrations of a competitive binder of the α-DNP antibody inhibits ternary complex formation was investigated. […] However, different preparations of the HepG2 cells and/or compound gave varying mean fluorescence intensity for the cell population between different independent experimental replicates. Therefore, for competition studies, inhibition of ternary complex formation was reported rather than mean fluorescence intensity of the cell population. 100% ternary complex formation is corrected to the fluorescence of a cell population treated with both 40 nM DNP-AF3 and 100 nM α-DNP antibody, while 0% ternary complex formation is corrected to a mixture of cells and α-DNP antibody without DNP-AF3.
A general note: In flow cytometry, cells or beads pass a laser one at a time.

The test system of series [7] is α-DNP antibody. As to the kind of experiment: Depletion of α-DNP antibody from serum in mice (ELISA). Particulars: i.p.; FIG. 79A. Type of series: in vivo.
The test system of series [8] is ASGPR on the surface of immortalized human hepatocyte HepG2 cells. Description: DNP-GN3-mediated ternary complex formation: association of fluorescently labeled α-DNP antibody with HepG2 cells in suspension. Format: cell-based. Conditions: competition; FIG. 86B-86C; read-out: IC50, decrease of DNP-GN3-mediated cellular fluorescence.
Description: as §1

The source of these data is patent publication US20230087994A1, “TARGETED BIFUNCTIONAL DEGRADERS” (YALE UNIVERSITY, priority 2019, published 2023).

As for `CC(=O)N[C@H]1C(O)O[C@H](CO)[C@H](O)[C@@H]1O` (stereo partly shown) [GalNAc, N-acetylgalactosamine], the IC50 (as a rule, the concentration that inhibits the measured activity by half) in series [1] amounted to 200000 nM. In addition, the “effect on DNP-AF3-mediated α-DNP antibody endocytosis” value in the series with HepG2 cells [2] was “significantly decreased cellular fluorescence”. In the series with HepG2 cells [3], the “effect on DNP-GN3-mediated α-DNP antibody endocytosis” value was “significantly decreased”.
On to `O=C(CCOCC(COCCC(=O)NCCOCCOCCO)(COCCC(=O)NCCOCCOCCO)NC(=O)CNC(=O)COCCOCCOCCNc1ccc([N+](=O)[O-])cc1[N+](=O)[O-])NCCOCCOCCO` [DNP-OH3, reference compound], for which the “antibody depletion from serum” value in the series on α-DNP antibody [4] was “No accelerated antibody depletion”. Moreover, the toxicity to mice entry in series [5] was “not toxic”. Also, the IC50 in series [6] is 40.6 nM; in series [8], 36 nM. Besides, the “degradation of injected anti-DNP IgG antibodies in mouse serum” value in the series on α-DNP antibody [7] is “did not show such effect”. Moreover, the “effect on DNP-AF3-mediated α-DNP antibody endocytosis” value with HepG2 cells [2] was “decreased to near-background levels”. Further, the “effect on DNP-GN3-mediated α-DNP antibody endocytosis” value in the series on HepG2 cells [3] was “significantly decreased”.
